Measurements: the kinase profiling compilation of Christmann-Franck et al. (2016)

What was measured:
Assay in all cases: KINOMEscan competition binding
Settings in all cases: compound 10.0 µM
ACVRL1 (human) = ACVRL1 (human) (UniProt P37023)
ADCK4 (human) = ADCK4 (human) (UniProt Q96D53)
CAMK2B (human) = CAMK2B (human) (UniProt Q13554)
CDK9 (human) = CDK9 (human) (UniProt P50750)
CHEK1 (human) = CHEK1 (human) (UniProt O14757)
CHUK (human) = CHUK (human) (UniProt O15111)
CSNK1G2 (human) = CSNK1G2 (human) (UniProt P78368)
CSNK1G3 (human) = CSNK1G3 (human) (UniProt Q9Y6M4)
DCLK1 (human) = DCLK1 (human) (UniProt O15075)
DYRK1A (human) = DYRK1A (human) (UniProt Q13627)
[1] = test system: EGFR (human), P00533 [752-759 del]
EPHA6 (human) = EPHA6 (human) (UniProt Q9UF33)
HIPK2 (human) = HIPK2 (human) (UniProt Q9H2X6)
IRAK3 (human) = IRAK3 (human) (UniProt Q9Y616)
[2] = test system: KIT (human), P10721 [L576P]
MAP2K4 (human) = MAP2K4 (human) (UniProt P45985)
MAP3K2 (human) = MAP3K2 (human) (UniProt Q9Y2U5)
MAP3K5 (human) = MAP3K5 (human) (UniProt Q99683)
MAPK15 (human) = MAPK15 (human) (UniProt Q8TD08)
MAPK9 (human) = MAPK9 (human) (UniProt P45984)
NEK5 (human) = NEK5 (human) (UniProt Q6P3R8)
NEK6 (human) = NEK6 (human) (UniProt Q9HC98)
NEK7 (human) = NEK7 (human) (UniProt Q8TDX7)
OXSR1 (human) = OXSR1 (human) (UniProt O95747)
PKN1 (human) = PKN1 (human) (UniProt Q16512)
PLK1 (human) = PLK1 (human) (UniProt P53350)
PRKAA2 (human) = PRKAA2 (human) (UniProt P54646)
PRKACB (human) = PRKACB (human) (UniProt P22694)
PRKCH (human) = PRKCH (human) (UniProt P24723)
PRKD3 (human) = PRKD3 (human) (UniProt O94806)
[3] = test system: RET (human), P07949 [V804M]
SBK1 (human) = SBK1 (human) (UniProt Q52WX2)
STK32C (human) = STK32C (human) (UniProt Q86UX6)
STK33 (human) = STK33 (human) (UniProt Q9BYT3)
TEC (human) = TEC (human) (UniProt P42680)
TGFBR2 (human) = TGFBR2 (human) (UniProt P37173)
TYRO3 (human) = TYRO3 (human) (UniProt Q06418)
CPK1 (P.falciparum) = test system: CPK1 (P.falciparum)
IRAK4 (human) = IRAK4 (human) (UniProt Q9NWZ3)

MAPK15 (human), sequence (Q8TD08 whole entry, looked up): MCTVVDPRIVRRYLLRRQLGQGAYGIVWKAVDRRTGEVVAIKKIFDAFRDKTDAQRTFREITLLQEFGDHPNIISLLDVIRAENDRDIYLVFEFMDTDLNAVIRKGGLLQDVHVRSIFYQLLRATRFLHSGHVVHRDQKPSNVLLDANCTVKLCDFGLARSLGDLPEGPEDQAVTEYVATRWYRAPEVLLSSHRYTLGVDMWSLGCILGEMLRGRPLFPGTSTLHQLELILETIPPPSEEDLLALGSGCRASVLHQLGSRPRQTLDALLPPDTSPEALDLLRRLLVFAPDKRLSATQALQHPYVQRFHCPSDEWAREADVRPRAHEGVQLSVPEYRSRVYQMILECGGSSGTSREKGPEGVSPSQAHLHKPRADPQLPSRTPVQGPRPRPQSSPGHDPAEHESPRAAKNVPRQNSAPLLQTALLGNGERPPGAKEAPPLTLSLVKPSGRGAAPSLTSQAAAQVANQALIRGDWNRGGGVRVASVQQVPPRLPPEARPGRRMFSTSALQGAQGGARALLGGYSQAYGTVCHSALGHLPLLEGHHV
NEK6 (human), sequence (Q9HC98 whole entry, looked up): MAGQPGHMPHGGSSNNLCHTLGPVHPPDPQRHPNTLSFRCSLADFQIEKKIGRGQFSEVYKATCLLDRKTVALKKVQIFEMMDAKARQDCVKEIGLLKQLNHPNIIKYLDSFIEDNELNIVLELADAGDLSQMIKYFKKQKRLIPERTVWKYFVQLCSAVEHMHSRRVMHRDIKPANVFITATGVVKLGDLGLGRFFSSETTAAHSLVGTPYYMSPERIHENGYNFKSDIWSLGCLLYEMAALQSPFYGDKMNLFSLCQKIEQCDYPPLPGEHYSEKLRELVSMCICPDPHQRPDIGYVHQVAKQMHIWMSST
PKN1 (human), sequence (Q16512 whole entry, looked up): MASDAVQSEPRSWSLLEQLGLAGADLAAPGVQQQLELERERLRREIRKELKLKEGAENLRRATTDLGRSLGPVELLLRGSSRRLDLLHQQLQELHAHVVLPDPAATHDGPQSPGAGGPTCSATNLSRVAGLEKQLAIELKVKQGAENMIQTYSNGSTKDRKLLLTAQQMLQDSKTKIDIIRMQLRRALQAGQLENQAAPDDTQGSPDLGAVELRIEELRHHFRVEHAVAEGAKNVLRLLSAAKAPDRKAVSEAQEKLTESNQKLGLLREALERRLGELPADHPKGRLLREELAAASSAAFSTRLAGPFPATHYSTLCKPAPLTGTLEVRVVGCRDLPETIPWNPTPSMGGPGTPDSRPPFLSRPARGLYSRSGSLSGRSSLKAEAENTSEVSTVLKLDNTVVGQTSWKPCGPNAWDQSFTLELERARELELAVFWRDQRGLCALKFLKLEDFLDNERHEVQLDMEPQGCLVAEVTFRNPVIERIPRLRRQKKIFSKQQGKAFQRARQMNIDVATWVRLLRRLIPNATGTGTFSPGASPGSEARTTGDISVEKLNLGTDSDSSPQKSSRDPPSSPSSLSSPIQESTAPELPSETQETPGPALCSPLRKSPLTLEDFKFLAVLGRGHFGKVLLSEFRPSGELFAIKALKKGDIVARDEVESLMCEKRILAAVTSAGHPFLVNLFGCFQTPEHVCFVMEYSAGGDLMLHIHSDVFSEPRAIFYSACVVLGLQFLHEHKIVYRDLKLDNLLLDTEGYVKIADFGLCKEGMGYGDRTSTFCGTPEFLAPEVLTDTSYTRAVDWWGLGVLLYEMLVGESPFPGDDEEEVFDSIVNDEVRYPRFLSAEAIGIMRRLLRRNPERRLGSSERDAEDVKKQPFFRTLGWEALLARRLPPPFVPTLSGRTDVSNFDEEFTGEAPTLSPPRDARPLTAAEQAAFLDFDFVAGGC
STK32C (human), sequence (Q86UX6 whole entry, looked up): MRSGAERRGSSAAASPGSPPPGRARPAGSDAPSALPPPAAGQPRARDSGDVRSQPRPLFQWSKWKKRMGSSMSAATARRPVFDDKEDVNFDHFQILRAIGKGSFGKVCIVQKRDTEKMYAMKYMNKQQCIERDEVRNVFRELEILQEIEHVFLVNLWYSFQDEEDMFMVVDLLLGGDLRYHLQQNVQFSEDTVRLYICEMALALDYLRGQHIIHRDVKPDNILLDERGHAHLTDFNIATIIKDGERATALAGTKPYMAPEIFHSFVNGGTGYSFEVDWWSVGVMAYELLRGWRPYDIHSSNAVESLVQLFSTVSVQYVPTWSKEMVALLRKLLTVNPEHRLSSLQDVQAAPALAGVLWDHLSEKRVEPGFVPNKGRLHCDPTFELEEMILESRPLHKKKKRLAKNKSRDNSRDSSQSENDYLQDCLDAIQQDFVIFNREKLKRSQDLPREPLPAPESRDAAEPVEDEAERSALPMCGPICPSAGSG
ADCK4 (human), sequence (Q96D53 whole entry, looked up): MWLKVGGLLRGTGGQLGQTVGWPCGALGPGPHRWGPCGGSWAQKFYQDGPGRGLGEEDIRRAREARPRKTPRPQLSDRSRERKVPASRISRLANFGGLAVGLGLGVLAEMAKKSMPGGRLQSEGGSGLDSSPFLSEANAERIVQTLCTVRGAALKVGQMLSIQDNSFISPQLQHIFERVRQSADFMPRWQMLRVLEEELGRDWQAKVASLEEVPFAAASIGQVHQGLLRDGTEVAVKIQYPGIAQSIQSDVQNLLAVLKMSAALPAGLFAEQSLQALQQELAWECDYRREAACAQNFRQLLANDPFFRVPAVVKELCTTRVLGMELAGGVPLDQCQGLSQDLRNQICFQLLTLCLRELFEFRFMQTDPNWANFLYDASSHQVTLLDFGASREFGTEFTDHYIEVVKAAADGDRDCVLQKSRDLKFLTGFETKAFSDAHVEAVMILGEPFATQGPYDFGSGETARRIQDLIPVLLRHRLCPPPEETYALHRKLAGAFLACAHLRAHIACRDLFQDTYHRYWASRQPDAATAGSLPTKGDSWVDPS
CHUK (human), sequence (O15111 whole entry, looked up): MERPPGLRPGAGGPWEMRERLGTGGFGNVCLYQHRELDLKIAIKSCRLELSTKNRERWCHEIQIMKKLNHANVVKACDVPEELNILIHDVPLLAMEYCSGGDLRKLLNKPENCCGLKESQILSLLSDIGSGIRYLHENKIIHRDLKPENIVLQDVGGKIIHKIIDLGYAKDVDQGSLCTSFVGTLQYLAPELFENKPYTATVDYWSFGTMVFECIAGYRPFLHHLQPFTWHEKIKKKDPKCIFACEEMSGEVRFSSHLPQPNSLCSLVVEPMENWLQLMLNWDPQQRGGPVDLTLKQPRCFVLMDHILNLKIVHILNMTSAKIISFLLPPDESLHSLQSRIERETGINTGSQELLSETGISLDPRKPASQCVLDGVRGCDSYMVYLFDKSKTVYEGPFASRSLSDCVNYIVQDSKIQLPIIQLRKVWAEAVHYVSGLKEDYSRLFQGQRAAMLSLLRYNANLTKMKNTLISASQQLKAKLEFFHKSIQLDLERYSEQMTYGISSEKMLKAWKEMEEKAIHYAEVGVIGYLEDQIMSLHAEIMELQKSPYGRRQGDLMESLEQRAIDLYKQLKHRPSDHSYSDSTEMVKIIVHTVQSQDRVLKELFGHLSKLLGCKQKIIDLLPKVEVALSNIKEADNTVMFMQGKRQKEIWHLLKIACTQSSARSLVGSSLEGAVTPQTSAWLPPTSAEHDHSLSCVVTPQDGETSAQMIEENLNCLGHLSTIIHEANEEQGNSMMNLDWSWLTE
SBK1 (human), sequence (Q52WX2 whole entry, looked up): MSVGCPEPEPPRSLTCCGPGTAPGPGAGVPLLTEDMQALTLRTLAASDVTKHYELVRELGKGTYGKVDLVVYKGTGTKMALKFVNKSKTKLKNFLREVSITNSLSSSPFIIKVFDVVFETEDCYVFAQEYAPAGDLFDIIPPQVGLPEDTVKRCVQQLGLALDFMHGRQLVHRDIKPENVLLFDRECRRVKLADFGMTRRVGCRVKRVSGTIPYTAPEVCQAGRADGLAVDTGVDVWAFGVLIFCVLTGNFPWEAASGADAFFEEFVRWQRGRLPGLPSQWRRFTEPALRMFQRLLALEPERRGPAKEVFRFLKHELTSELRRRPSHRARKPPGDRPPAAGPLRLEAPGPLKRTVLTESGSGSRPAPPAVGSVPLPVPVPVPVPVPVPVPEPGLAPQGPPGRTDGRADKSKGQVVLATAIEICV
TGFBR2 (human), sequence (P37173 whole entry, looked up): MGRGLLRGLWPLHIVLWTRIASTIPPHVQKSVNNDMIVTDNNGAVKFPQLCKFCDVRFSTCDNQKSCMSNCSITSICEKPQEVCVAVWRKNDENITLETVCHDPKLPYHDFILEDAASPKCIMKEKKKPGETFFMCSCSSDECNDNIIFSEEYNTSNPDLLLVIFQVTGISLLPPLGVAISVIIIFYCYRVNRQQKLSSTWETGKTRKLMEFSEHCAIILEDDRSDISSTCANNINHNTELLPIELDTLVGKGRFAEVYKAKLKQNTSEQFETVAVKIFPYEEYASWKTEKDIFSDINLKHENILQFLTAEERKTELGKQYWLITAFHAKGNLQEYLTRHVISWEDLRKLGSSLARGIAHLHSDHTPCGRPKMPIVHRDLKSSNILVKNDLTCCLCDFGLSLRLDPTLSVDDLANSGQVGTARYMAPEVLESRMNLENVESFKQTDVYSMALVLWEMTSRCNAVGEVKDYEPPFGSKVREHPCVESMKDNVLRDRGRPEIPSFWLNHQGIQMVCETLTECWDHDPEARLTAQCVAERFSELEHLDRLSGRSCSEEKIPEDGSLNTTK
CSNK1G2 (human), sequence (P78368 whole entry, looked up): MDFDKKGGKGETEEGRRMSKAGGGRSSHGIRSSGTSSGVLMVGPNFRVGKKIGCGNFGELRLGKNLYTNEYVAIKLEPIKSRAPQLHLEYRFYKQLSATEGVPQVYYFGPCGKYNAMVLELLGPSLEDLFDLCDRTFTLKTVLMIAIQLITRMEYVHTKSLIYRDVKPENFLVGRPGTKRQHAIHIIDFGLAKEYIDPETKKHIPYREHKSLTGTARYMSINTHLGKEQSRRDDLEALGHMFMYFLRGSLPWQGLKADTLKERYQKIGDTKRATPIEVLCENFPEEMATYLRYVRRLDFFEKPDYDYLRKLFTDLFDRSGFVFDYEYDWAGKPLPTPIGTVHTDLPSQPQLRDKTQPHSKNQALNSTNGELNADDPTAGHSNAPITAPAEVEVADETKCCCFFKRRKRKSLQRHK

SMILES | kinase still bound, per cent of control (ACVRL1 (human)) [%] | kinase still bound, per cent of control (ADCK4 (human)) [%] | kinase still bound, per cent of control (CAMK2B (human)) [%] | kinase still bound, per cent of control (CDK9 (human)) [%] | kinase still bound, per cent of control (CHEK1 (human)) [%] | kinase still bound, per cent of control (CHUK (human)) [%] | kinase still bound, per cent of control (CSNK1G2 (human)) [%] | kinase still bound, per cent of control (CSNK1G3 (human)) [%] | kinase still bound, per cent of control (DCLK1 (human)) [%] | kinase still bound, per cent of control (EPHA6 (human)) [%] | kinase still bound, per cent of control (IRAK3 (human)) [%] | kinase still bound, per cent of control [2] [%] | kinase still bound, per cent of control (MAP2K4 (human)) [%] | kinase still bound, per cent of control (MAP3K2 (human)) [%] | kinase still bound, per cent of control (MAP3K5 (human)) [%] | kinase still bound, per cent of control (MAPK15 (human)) [%] | kinase still bound, per cent of control (MAPK9 (human)) [%] | kinase still bound, per cent of control (NEK5 (human)) [%] | kinase still bound, per cent of control (NEK6 (human)) [%] | kinase still bound, per cent of control (NEK7 (human)) [%] | further results
CCN(CC)CCCCNc1ncc2c(n1)N(C)C(=O)N(c1c(Cl)c(OC)cc(OC)c1Cl)C2 | 100 | 100 | 100 | 100 | 100 | 100 | 100 | 100 | 100 | 100 | 100 | 2.3 | 100 | 6.8 | 100 | 100 | 100 | 100 | 100 | 100 | kinase still bound, per cent of control (DYRK1A (human)): 100%; kinase still bound, per cent of control [1]: 100%; kinase still bound, per cent of control (HIPK2 (human)): 100%; kinase still bound, per cent of control (OXSR1 (human)): 100%; kinase still bound, per cent of control (PKN1 (human)): 100%; kinase still bound, per cent of control (PLK1 (human)): 100%; kinase still bound, per cent of control (PRKAA2 (human)): 100%; kinase still bound, per cent of control (PRKACB (human)): 100%; kinase still bound, per cent of control (PRKCH (human)): 100%; kinase still bound, per cent of control (PRKD3 (human)): 100%; kinase still bound, per cent of control [3]: 100%; kinase still bound, per cent of control (SBK1 (human)): 100%; kinase still bound, per cent of control (STK32C (human)): 100%; kinase still bound, per cent of control (STK33 (human)): 100%; kinase still bound, per cent of control (TEC (human)): 100%; kinase still bound, per cent of control (TGFBR2 (human)): 100%; kinase still bound, per cent of control (TYRO3 (human)): 100%
COCC(=O)NC/C=C/c1ccc2ncnc(Nc3ccc(Oc4ccc(C)nc4)c(C)c3)c2c1 | 84 | 98 | 88 | 100 | 90 | 100 | 100 | 100 | 100 | 96 | 82 | 54 | 95 | 100 | 90 | 100 | 53 | 100 | 100 | 73 | kinase still bound, per cent of control (CPK1 (P.falciparum)): 25%; kinase still bound, per cent of control (IRAK4 (human)): 100%; kinase still bound, per cent of control (OXSR1 (human)): 100%; kinase still bound, per cent of control (PKN1 (human)): 100%; kinase still bound, per cent of control (PLK1 (human)): 81%; kinase still bound, per cent of control (PRKAA2 (human)): 100%; kinase still bound, per cent of control (PRKACB (human)): 100%; kinase still bound, per cent of control (PRKCH (human)): 100%; kinase still bound, per cent of control (PRKD3 (human)): 83%; kinase still bound, per cent of control (SBK1 (human)): 100%; kinase still bound, per cent of control (STK32C (human)): 86%; kinase still bound, per cent of control (TEC (human)): 73%; kinase still bound, per cent of control (TGFBR2 (human)): 94%; kinase still bound, per cent of control (TYRO3 (human)): 80%
